We go through one compound from patent publication US10821152B2, “Methods, agents and compositions for treatment of inflammatory conditions” (Betanien Hospital, priority 2014, dated 2020).

What all share (assay type): in vivo, human
The test system of test [1] is patient with seropositive rheumatoid arthritis. Description: Treatment of RA using Ganirelix. How it is done: • person with seropositive rheumatoid arthritis with disease duration of 10 years. • Fulfilled ACR 2010 classification criteria for rheumatoid arthritis. Experimental Treatment • Had tried almost all available rheumatoid arthritis therapies available previously without effect. • Offered experimental GnRH antagonist therapy, Ganirelix 0.75 mg sc daily (0.25 mg sc three times a day) Assessment of Response at 4 Months • Disease activity score (DAS) reduction from 5.5 to 2.2 (remission). • A DAS reduction of 0.6 units is defined as a clinical response to treatment (1). • Their ESR decreased from 28 mm to 19 mm, with a normalization of their CRP from 23 mg/L to 5 mg/L. This is supported by the decrease in their anti-cyclic citrullinated peptide (CCP) antibodies from 27 u/mL. to 14 u/mL.

Test [2] has as its system patient with tendonitis of the elbow. Description: GnRH antagonist injection around tendon in tendonitis. The following applies: 1.5 mg injected around the affected tendon, 2 week post injection. As to the method: • person diagnosed with tendonitis of the elbow with ultrasound confirming tendonitis. Experimental Treatment • Treated with an injection of GnRH antagonist, Ganirelix 1.5 mg, around the affected tendon. Assessment of Response • Before and 2 week post injection ultrasound images are taken to show a decrease in tendonitis of the elbow.

Test [3] deals with patient with ulcerative colitis. As to the kind of experiment: GnRH antagonist treatment for colitis (Ganirelix). As to the method:
• person with ulcerative colitis for the past 10 years Experimental Treatment • Is offered Ganirelix 2 mg daily for 6months Assessment of Response • By 6 months they experience clinical remission with a partial Mayo score reduction from 3 to 0.

Non-standard residues stand in square brackets, D forms with d. Residues, ends and D or L forms follow the SMILES beside them. d(hArg(Et2)) = CCN=C(NCC)NCCCC[C@@H](N)C(=O)O; hArg(Et2) = CCN=C(NCC)NCCCC[C@H](N)C(=O)O; dPhe(4-Cl) = N[C@H](Cc1ccc(Cl)cc1)C(=O)O; d2Nal = N[C@H](Cc1ccc2ccccc2c1)C(=O)O; d3Pal = N[C@H](Cc1cccnc1)C(=O)O

Take `CCN=C(NCC)NCCCC[C@H](NC(=O)[C@H](CC(C)C)NC(=O)[C@@H](CCCCNC(=NCC)NCC)NC(=O)[C@H](Cc1ccc(O)cc1)NC(=O)[C@H](CO)NC(=O)[C@@H](Cc1cccnc1)NC(=O)[C@@H](Cc1ccc(Cl)cc1)NC(=O)[C@@H](Cc1ccc2ccccc2c1)NC(C)=O)C(=O)N1CCC[C@H]1C(=O)N[C@H](C)C(N)=O` [Ganirelix] (Ac-[d2Nal][dPhe(4-Cl)][d3Pal]SY[d(hArg(Et2))]L[hArg(Et2)]P[dA]-NH2): in test [1] (at 4 months), the CRP came to 5 mg/L, the ESR stood at 19 mm, the “anti-cyclic citrullinated peptide (CCP) antibodies” value came to 14 u/mL and the rheumatoid factor level is 75 kIU/L. In addition, the “Disease activity score (DAS)” value in test [1] (at 4 months, 0.75 mg sc daily (remission)) was 2.2. Also, in test [1] (before Ganirelix), the CRP amounted to 23 mg/L, the “Disease activity score (DAS)” value turned out to be 5.5, the ESR came to 28 mm and the “anti-cyclic citrullinated peptide (CCP) antibodies” value came to 27 u/mL. The same compound gave a rheumatoid factor level in test [1] (before Ganirelix) of 113 kIU/L. Moreover, in test [2], the “tendonitis of the elbow on ultrasound” value is recorded as “decrease”. For the same compound, the “partial Mayo score” value in test [3] (Ganirelix 2 mg daily, by 6 months (clinical remission)) was 0. The “partial Mayo score” value in test [3] (before Ganirelix) came to 3.
